Results reported in ChEMBL document CHEMBL4364263, “Synthesis and biological evaluation of 2,4,5-trisubstituted thiazoles as antituberculosis agents effective against drug-resistant tuberculosis” (Eur J Med Chem, 2019).
Converted amounts (≈) assume the structure as drawn.

Tests used:
Assay type in all cases: functional
[1] = test system: Mycobacterium tuberculosis; test: Antitubercular activity against isoniazid, streptomycin, ethionamide and ethambutol resistant Mycobacterium tuberculosis isolate 1 assessed as growth inhibition
[2] = test system: Mycobacterium tuberculosis; test: Antitubercular activity against isoniazid and ethionamide resistant Mycobacterium tuberculosis isolate 2 assessed as growth inhibition
[3] = test system: Mycobacterium tuberculosis; test: Antitubercular activity against isoniazid, streptomycin and rifampicin resistant Mycobacterium tuberculosis isolate 3 assessed as growth inhibition
[4] = test system: Mycobacterium tuberculosis; test: Antitubercular activity against isoniazid and rifampicin resistant Mycobacterium tuberculosis isolate 4 assessed as growth inhibition
[5] = test system: Mycobacterium tuberculosis; test: Antitubercular activity against isoniazid and ethionamide resistant Mycobacterium tuberculosis isolate 5 assessed as growth inhibition
[6] = test system: Mycobacterium tuberculosis; test: Antitubercular activity against isoniazid, streptomycin and ethionamide resistant Mycobacterium tuberculosis isolate 6 assessed as growth inhibition
[7] = test system: Mycobacterium tuberculosis; test: Antitubercular activity against isoniazid, streptomycin, ethionamide, ethambutol and rifampicin resistant Mycobacterium tuberculosis isolate 7 assessed as growth inhibition
[8] = test system: Mycobacterium tuberculosis; test: Antitubercular activity against isoniazid, streptomycin, ethionamide, ethambutol, rifampicin and ofloxacin resistant Mycobacterium tuberculosis isolate 8 assessed as growth inhibition

CCOC(=O)c1nc(C2CCCCC2)sc1-c1ccc(C#N)cc1
MIC [1]: 8 µg/mL (≈ 23.5 µM)
MIC [2]: 8 µg/mL (≈ 23.5 µM)
MIC [3]: 16 µg/mL (≈ 47 µM)
MIC [4]: 4 µg/mL (≈ 11.7 µM)
MIC [5]: 8 µg/mL (≈ 23.5 µM)
MIC [6]: 8 µg/mL (≈ 23.5 µM)
MIC [7]: 16 µg/mL (≈ 47 µM)
MIC [8]: > 32 µg/mL
